PMC10507961, “Development of an amoxicillin-radix scutellaria extract formulation and evaluation of its pharmacokinetics in pigs” (BMC Veterinary Research, 2023)
In brackets after ≈: the same amount, converted by molar mass.

What was measured:
[1] = Second pharmacokinetic study in pigs (three doses of AMO-RSE powder); type: in vivo; details: p.o. AMO-RSE powder, tested dose range (AMO 10–30 mg/kg, BCL 5–15 mg/kg)
From the text: Twelve healthy Landrace × Large White hybrid pigs, half male and half female, with an average body weight of 15 ± 3.2 kg (range 11–18 kg), were randomly divided into two groups (three male and three female pigs in each group) for pharmacokinetics experiments and were purchased from JuCong agriculture, Nanning, Guangxi. Commercial feed and water free of antibiotics and target drugs were freely available to the pigs housed individually in 12 pig pens. After the experiment, the pigs were released.
Pig jugular vein blood was collected in an anticoagulant tube, and centrifuged at 3000 rpm for 10 min, and the separated plasma was stored at -20 ℃. The plasma sample was placed at room temperature for natural thawing, and it was mixed evenly with a vortex, 1 mL of the plasma sample was accurately measure and placed it in a 10 mL centrifuge tube with a cover. […]
Using HPLC to measured the content of AMO. […] The limits of detection and quantification of amoxicillin in the plasma were 0.03 and 0.1 µg/ml, respectively.
The content of BCL were measured using HPLC. […] The limits of detection and quantification of […] in the plasma were 0.03 and 0.1 µg/ml, respectively. […]
The concentrations of AMO and BCL in plasma at each time point are expressed as the arithmetic mean ± SD. The pharmacokinetic parameters were calculated by using noncompartmental analysis based on statistical moment theory. […]

[2] = test system: Escherichia coli; assay: Antibacterial susceptibility test (MIC), E. coli; type: cell-based; details: 15 strains, MIC range, read-out: AMO MIC
Description: (§1) Fifteen strains of E. coli, 16 strains of […], and 16 strains of […] were provided by the Department of Pharmacology and Toxicology of China Agricultural University. The minimum inhibitory concentration (MIC) of AMO and RSE was tested in the bacteria mentioned above; this method was previously reported by Jiarong Cao, et al.. Amoxicillin or baicalin was added to a sterile 96-well plate with multiple dilutions from low to high concentrations from the first well to the tenth well, with 100 μL per well. 100 μL of bacterial solution was added to a concentration of 1 × 10^6 CFU/mL. 200 μL of the bacterial solution was added to the 11th well as positive control, and 200 μL of broth was added to the 12th well as a negative control. The MIC test of quality control bacteria was carried out at the same time in each test. The 96-well plate was placed in a 37 ℃ incubator for 18 to 24 h, and the results were observed and recorded. The experiment was repeated three times.

[3] = test system: Salmonella; assay: Antibacterial susceptibility test (MIC), Salmonella; type: cell-based; details: read-out: AMO MIC
Description: The minimum inhibitory concentration (MIC) of AMO and RSE was tested in the bacteria mentioned above; this method was previously reported by Jiarong Cao, et al..
Amoxicillin or baicalin was added to a sterile 96-well plate with multiple dilutions from low to high concentrations from the first well to the tenth well, with 100 μL per well. 100 μL of bacterial solution was added to a concentration of 1 × 10^6 CFU/mL. 200 μL of the bacterial solution was added to the 11th well as positive control, and 200 μL of broth was added to the 12th well as a negative control. The MIC test of quality control bacteria was carried out at the same time in each test. The 96-well plate was placed in a 37 ℃ incubator for 18 to 24 h, and the results were observed and recorded. The experiment was repeated three times.

[4] = test system: Streptococcus; assay: Antibacterial susceptibility test (MIC), Streptococcus; type: cell-based; details: 16 strains, MIC range
Description: as §1

[5] = Angle of repose test; type: physicochemical; details: fixed funnel method
Description: The fixed funnel method was used to measure the angle of repose. A funnel was fixed at a height of 3 cm above coordinate paper (the paper was placed on a horizontal table), and materials were added through the funnel until the top of the accumulated cone came into contact with the bottom of the funnel. The cone diameter was measured, and the angle of repose was calculated with the ratio of the distance between the funnel and paper to the cone radius as the tangent.

[6] = Moisture absorption percentage test; type: physicochemical
Description: Sample dried to a constant weight (1 g) was placed in a 5 mL flat weighing bottle, shaken gently to evenly distribute the sample, weighed accurately, put it in a dryer containing supersaturated sodium chloride solution (the weighing bottle is opened), and weighed after 24 h (n = 3). The moisture absorption percentage was calculated according to the following formula: Moistureabsorptionpercentage(%)=weightaftermoistureabsorption-weightbeforemoistureabsorption/weightbeforemoistureabsorption×100%

| Compound | dose linearity of pharmacokinetics [1] | MIC [2] [µg/mL] | MIC [3] [µg/mL] | AMO MIC [4] [µg/mL] | MIC ([4]; read-out: AMO MIC) [µg/mL] | angle of repose [5] [°] | moisture absorption percentage, rank among five excipients [6] |
| --- | --- | --- | --- | --- | --- | --- | --- |
| O=C(O)[C@H]1O[C@@H](Oc2cc3oc(-c4ccccc4)cc(=O)c3c(O)c2O)[C@H](O)[C@@H](O)[C@@H]1O [BCL, baicalin] | linear pharmacokinetic properties | – | – | – | – | – | – |
| CC1(C)S[C@@H]2[C@H](NC(=O)[C@H](N)c3ccc(O)cc3)C(=O)N2[C@H]1C(=O)O [AMO, Amoxicillin] | linear pharmacokinetic properties | 1 to 8 (≈ 2.74 to 21.9 µM) | 0.25 to 32 (≈ 0.684 to 87.6 µM) | 1 to 128 | 0.5 to 64 (≈ 1.37 to 175 µM) | – | – |
| OC[C@H]1OC(O)[C@H](O)[C@@H](O)[C@@H]1O (some centres unmarked) [glucose] | – | – | – | – | – | 41.44 | lowest |
